Laboratory results: patent US11919901B2 (Syndax Pharmaceuticals, Inc., priority 2021, dated 2024)

Test system: MV4-11 cells
Test: Cell proliferation assay MV4;11 (CellTiter-Glo, 72 hours)
Assay type: cell-based
Settings: Homo sapiens; MV4;11 leukemia cell line, 72 hours; read-out: MV4; 11 IC50
In short: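 MV4-11 cells (MLL1-AF4 fusion) exposed 72 h at 37 °C to 8 compound concentrations, final 0.632–2000 nM. Viability by CellTiter-Glo luminescence as % of vehicle RLU; % max inhibition = 100 − viability at top concentration.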

Row | SMILES | IC50
1 | C[C@@H]1COC[C@@H](C)N1C(=O)c1cc(F)ccc1Oc1cncnc1N1CC2(CCN(C[C@@H]3CC[C@@H](NS(=O)(=O)N4CCC[C@@H]4C)CO3)CC2)C1 [Example 209, (S)-N-((3R,6S)-6-((2-(5-(2-((3R,5R)-3,5-Dimethylmorpholine-4-carbonyl)-4-fluorophenoxy)pyrimidin-4-yl)-2,7-diazaspiro[3.5]nonan-7-yl)methyl)tetrahydro-2H-pyran-3-yl)-2-methylpyrrolidine-1-sulfonamide] | < 100 nM
2 | CC(C)N(CC(F)F)C(=O)c1cc(F)ccc1Oc1cncnc1N1CC2(CCN(C[C@@H]3CC[C@@H](NS(=O)(=O)N(C)CCCO)CO3)CC2)C1 [Example 214, N-(2,2-difluoroethyl)-5-fluoro-2-((4-(7-(((2S,5R)-5-((N-(3-hydroxypropyl)-N-methylsulfamoyl)amino)tetrahydro-2H-pyran-2-yl)methyl)-2,7-diazaspiro[3.5]nonan-2-yl)pyrimidin-5-yl)oxy)-N-isopropylbenzamide] | < 100 nM
3 | CCN(C(=O)c1cc(F)ccc1Oc1cncnc1N1CC2(CCN(C[C@@H]3CC[C@@H](NC(=O)Nc4ccccc4)CO3)CC2)C1)C(C)C [Example 215, N-Ethyl-5-fluoro-N-isopropyl-2-((4-(7-(((2S,5R)-5-(3-phenylureido)tetrahydro-2H-pyran-2-yl)methyl)-2,7-diazaspiro[3.5]nonan-2-yl)pyrimidin-5-yl)oxy)benzamide] | 100 to 1000 nM
4 | CCN(C(=O)c1cc(F)ccc1Oc1cnc(C)nc1N1CC2(CCN(C[C@@H]3CC[C@@H](NS(=O)(=O)CC)CO3)CC2)C1)C(C)C [Example 216, N-Ethyl-2-((4-(7-(((2S,5R)-5-(ethylsulfonamido)tetrahydro-2H-pyran-2-yl)methyl)-2,7-diazaspiro[3.5]nonan-2-yl)-2-methylpyrimidin-5-yl)oxy)-5-fluoro-N-isopropylbenzamide] | 100 to 1000 nM
5 | C=CS(=O)(=O)N[C@@H]1CC[C@@H](CN2CCC3(CC2)CN(c2ncncc2Oc2ccc(F)cc2C(=O)N(CC)C(C)C)C3)OC1 [Example 219, N-Ethyl-5-fluoro-N-isopropyl-2-((4-(7-(((2S,5R)-5-(vinylsulfonamido)tetrahydro-2H-pyran-2-yl)methyl)-2,7-diazaspiro[3.5]nonan-2-yl)pyrimidin-5-yl)oxy)benzamide] | < 100 nM
6 | CCN(C(=O)c1cc(F)ccc1Oc1cncnc1N1CC2(CCN(C[C@@H]3CC[C@@H](NS(=O)(=O)CCN(C)C)CO3)CC2)C1)C(C)C [Example 220, 2-((4-(7-(((2S,5R)-5-((2-(Dimethylamino)ethyl)sulfonamido)tetrahydro-2H-pyran-2-yl)methyl)-2,7-diazaspiro[3.5]nonan-2-yl)pyrimidin-5-yl)oxy)-N-ethyl-5-fluoro-N-isopropylbenzamide] | 100 to 1000 nM
7 | CC(C)N(C(=O)c1cc(F)ccc1Oc1cncnc1N1CC2(CCN(C[C@@H]3CC[C@@H](NS(=O)(=O)N4CC5(CCO5)C4)CO3)CC2)C1)C(C)C [Example 221, 2-((4-(7-(((2S,5R)-5-(1-Oxa-6-azaspiro[3.3]heptane-6-sulfonamido)tetrahydro-2H-pyran-2-yl)methyl)-2,7-diazaspiro[3.5]nonan-2-yl)pyrimidin-5-yl)oxy)-5-fluoro-N,N-diisopropylbenzamide] | < 100 nM
8 | CC(C)N(C(=O)c1cc(F)ccc1Oc1cncnc1N1CC2(CCN(C[C@@H]3CC[C@@H](NS(=O)(=O)N4CC5(COC5)C4)CO3)CC2)C1)C(C)C [Example 222, 2-((4-(7-(((2S,5R)-5-(2-Oxa-6-azaspiro[3.3]heptane-6-sulfonamido)tetrahydro-2H-pyran-2-yl)methyl)-2,7-diazaspiro[3.5]nonan-2-yl)pyrimidin-5-yl)oxy)-5-fluoro-N,N-diisopropylbenzamide] | < 100 nM
9 | CC(C)N(C(=O)c1cc(F)ccc1Oc1cncnc1N1CC2(CCN(C[C@@H]3CC[C@@H](NS(=O)(=O)N4CC5(CCOC5)C4)CO3)CC2)C1)C(C)C [Example 223, 2-((4-(7-(((2S,5R)-5-(6-Oxa-2-azaspiro[3.4]octane-2-sulfonamido)tetrahydro-2H-pyran-2-yl)methyl)-2,7-diazaspiro[3.5]nonan-2-yl)pyrimidin-5-yl)oxy)-5-fluoro-N,N-diisopropylbenzamide] | < 100 nM
